Assay results reported in publication PMC2658056 (The Journal of Biological Chemistry, 2009).
Changes are numbered by the printed parent chain. Converted amounts (≈) assume the structure as drawn.

Legend:
[1] = target: T1, C89A/C186A mutant of mouse L-PGDS (Mus musculus, UniProt O09114, C186A/C89A); assay: Intrinsic tryptophan fluorescence quenching assay, C89A/C186A mutant; format: binding
T1 sequence (O09114 23-189 C89A/C186A): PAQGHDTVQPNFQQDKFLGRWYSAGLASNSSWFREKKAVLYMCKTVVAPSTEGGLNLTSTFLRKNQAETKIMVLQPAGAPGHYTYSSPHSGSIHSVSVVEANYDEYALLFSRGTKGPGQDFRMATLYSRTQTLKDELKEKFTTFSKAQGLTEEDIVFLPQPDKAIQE

[2] = target: T2, W54A/C89A/C186A mutant of mouse L-PGDS (Mus musculus, UniProt O09114, C186A/C89A/W54A); assay: Intrinsic tryptophan fluorescence quenching assay, W54A/C89A/C186A mutant; format: binding
T2 sequence (O09114 23-189 W54A/C89A/C186A): T1 sequence (O09114 23-189 C89A/C186A) with W32A

[3] = target: T3, recombinant mouse L-PGDS C89A/C186A mutant (Mus musculus, UniProt O09114, C186A/C89A); assay: biochemical
T3 sequence (O09114 23-189 C89A/C186A): T1 sequence (O09114 23-189 C89A/C186A)

[4] = tested on: brain of H-PGDS KO mice; assay: PG production by stab wound brain injury
[5] = Maximum solubility in aqueous solution; format: physicochemical
[6] = tested on: L-PGDS-expressing human medulloblastoma TE-671 cells; assay: PG production by A23187-stimulated TE-671 cells; format: cell-based
[7] = Acute toxicity after oral administration; format: in vivo; settings: dose of 100 mg/kg
[8] = Pharmacokinetics of AT-56 in plasma; format: in vivo, C57BL/6 mice; settings: male, C57BL/6, mouse; for Tmax: mice
[9] = tested on: H-PGDS-expressing human megakaryoblastic MEG-01S cells; assay: PGD2 production by A23187-stimulated MEG-01S cells; format: cell-based
[10] = tested on: human L-PGDS TG mice; assay: L-PGDS-mediated allergic airway inflammation; format: in vivo
[11] = target: H-PGDS (Homo sapiens, UniProt O60760); assay: H-PGDS enzyme activity assay; format: biochemical; settings: AT-56 up to 250 μM
[12] = target: T4, COX-2 (Homo sapiens, UniProt P35354); assay: COX-2 enzyme activity assay; format: biochemical; settings: AT-56 up to 250 μM
T4 sequence (P35354 18-604): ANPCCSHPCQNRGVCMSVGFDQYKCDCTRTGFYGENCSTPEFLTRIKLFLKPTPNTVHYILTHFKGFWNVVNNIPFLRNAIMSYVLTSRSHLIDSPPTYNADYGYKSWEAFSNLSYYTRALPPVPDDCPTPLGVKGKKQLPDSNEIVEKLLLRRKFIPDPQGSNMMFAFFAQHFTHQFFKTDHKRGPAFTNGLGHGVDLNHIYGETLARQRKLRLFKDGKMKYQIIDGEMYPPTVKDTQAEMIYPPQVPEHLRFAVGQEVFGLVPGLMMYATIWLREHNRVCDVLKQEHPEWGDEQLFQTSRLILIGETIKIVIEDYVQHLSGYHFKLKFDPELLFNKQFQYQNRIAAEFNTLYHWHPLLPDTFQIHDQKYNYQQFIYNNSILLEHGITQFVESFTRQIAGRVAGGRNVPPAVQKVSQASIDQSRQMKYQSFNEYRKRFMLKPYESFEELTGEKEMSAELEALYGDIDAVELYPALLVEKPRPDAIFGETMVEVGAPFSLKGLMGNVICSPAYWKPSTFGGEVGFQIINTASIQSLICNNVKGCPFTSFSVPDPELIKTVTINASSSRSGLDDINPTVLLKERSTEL

[13] = target: T5, m-PGES-1 (Homo sapiens, UniProt O14684); assay: m-PGES-1 enzyme activity assay; format: biochemical; settings: AT-56 up to 250 μM
T5 sequence (O14684 1-152): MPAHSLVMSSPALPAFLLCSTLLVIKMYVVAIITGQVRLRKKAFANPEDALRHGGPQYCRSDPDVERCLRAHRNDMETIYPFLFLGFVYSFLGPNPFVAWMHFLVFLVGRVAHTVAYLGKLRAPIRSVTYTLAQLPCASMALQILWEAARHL

[14] = target: COX-1 (Homo sapiens, UniProt P23219); assay: COX-1 enzyme activity assay; format: biochemical; settings: AT-56 up to 250 μM
[15] = 0 to 30 μM AT-56, 5 μM A23187, enzyme immunoassay

COX-1, sequence (P23219 24-599): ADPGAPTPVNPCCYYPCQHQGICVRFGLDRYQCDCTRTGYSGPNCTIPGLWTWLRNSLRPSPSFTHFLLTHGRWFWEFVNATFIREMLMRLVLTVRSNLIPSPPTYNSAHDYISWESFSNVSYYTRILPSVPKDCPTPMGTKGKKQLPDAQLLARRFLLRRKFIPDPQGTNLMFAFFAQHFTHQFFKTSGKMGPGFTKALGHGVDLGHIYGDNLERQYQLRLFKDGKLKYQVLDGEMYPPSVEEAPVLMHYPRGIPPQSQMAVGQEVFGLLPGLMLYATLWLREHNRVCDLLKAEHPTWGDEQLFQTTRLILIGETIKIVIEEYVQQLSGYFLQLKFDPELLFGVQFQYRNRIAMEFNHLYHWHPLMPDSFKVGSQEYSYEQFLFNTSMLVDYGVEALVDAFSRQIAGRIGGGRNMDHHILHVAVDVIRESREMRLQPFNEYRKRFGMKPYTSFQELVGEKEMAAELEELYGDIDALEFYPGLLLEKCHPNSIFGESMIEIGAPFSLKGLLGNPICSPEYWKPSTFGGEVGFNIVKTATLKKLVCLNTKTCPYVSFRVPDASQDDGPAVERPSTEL
H-PGDS, sequence (O60760 whole entry, species assumed): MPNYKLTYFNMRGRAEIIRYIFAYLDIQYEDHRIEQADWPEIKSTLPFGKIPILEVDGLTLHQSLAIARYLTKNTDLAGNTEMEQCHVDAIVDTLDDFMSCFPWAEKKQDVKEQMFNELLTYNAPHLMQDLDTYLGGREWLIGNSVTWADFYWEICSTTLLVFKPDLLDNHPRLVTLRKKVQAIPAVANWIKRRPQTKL

CC1=C(/C=C/C(C)=C/C=C/C(C)=C\C(=O)O)C(C)(C)CCC1 [13-cis-retinoic acid, reference compound]
tryptophan fluorescence intensity decreased to ([1]; 10 μM 13-cis-retinoic acid, absence of AT-56): about 8% | tryptophan fluorescence intensity decreased to ([1]; 10 μM 13-cis-retinoic acid, in the presence of 10 μM AT-56): < 10% | tryptophan fluorescence intensity decreased to ([2]; 10 μM 13-cis-retinoic acid): < 10%

C1=Cc2ccccc2C(=C2CCN(CCCCc3nn[nH]n3)CC2)c2ccccc21 [AT-56, 4-dibenzo[a,d]cyclohepten-5-ylidene-1-[4-(2H-tetrazol-5-yl)-butyl]-piperidine]
IC50 [3]: 95 µM | Ki [3]: 75 µM | total amount of PGD2 in the brain decreased to ([4]; 30 mg/kg AT-56 orally 1 h before the injury): 40% | amount of PGE2 in the brain ([4]; AT-56 orally 1–30 mg/kg): not significantly changed | amount of PGF2α in the brain ([4]; AT-56 orally 1–30 mg/kg): not significantly changed | solubility ([5]; 10% DMSO): 260 µM (≈ 103 µg/mL) | solubility ([5]; saline containing 1% DMSO): 90 µM (≈ 35.8 µg/mL) | effect on PGE2 production [6, 15]: without affecting | effect on PGF2α production [6, 15]: without affecting | PGD2 biosynthesis ([6]; 10 μM AT-56, A23187): only a base level | arachidonic acid release ([6]; 10 μM AT-56, A23187): without changing | IC50 ([6]; Homo sapiens, TE-671, read-out: IC50, PGD2 production): ~3 µM | production of other 14C-labeled metabolites ([6]; [1-14C]arachidonic acid-prelabeled cells, AT-56 up to 100 μM): not inhibited | effect on binding of 13-cis-retinoic acid to L-PGDS ([1]; 10 μM AT-56): did not inhibit the binding | tryptophan fluorescence intensity decreased to ([1]; 10 μM AT-56): about 60% | acute toxic effects [7]: did not detect any acute toxic effects | fluorescence quenching ([2]; 10 μM AT-56): did not show the fluorescence quenching | AUC ([8]; iv, 2 mg/kg): 1280 ng·h/mL | C0 ([8]; iv, 2 mg/kg): 860 ng/mL | half-life ([8]; iv, 2 mg/kg): 2.35 h | Tmax ([8]; iv, 2 mg/kg): 0.08 h | AUC ([8]; po, 10 mg/kg): 8950 ng·h/mL | Cmax ([8]; po, 10 mg/kg): 2150 ng/mL | bioavailability ([8]; po, 10 mg/kg): 82% | concentration at 12 h ([8]; po, 10 mg/kg): < 0.4 ng/mL | half-life ([8]; po, 10 mg/kg): 1.71 h | Tmax ([8]; po, 10 mg/kg, per os): 0.5 h | effect on PGD2 production [9]: no effect | total cells in BALF, actual number ([10]; 1 mg/kg AT-56 p.o.): 8.7 ± 1.9 × 10^4 cells/ml | total cells in BALF, actual number ([10]; 10 mg/kg AT-56 p.o.): 2.7 ± 0.4 × 10^4 cells/ml | effect on H-PGDS activity [11]: not significantly affected | effect on COX-2 activity [12]: not significantly affected | effect on m-PGES-1 activity [13]: not significantly affected | effect on COX-1 activity [14]: not significantly affected

c1ccc(C(OC2CCN(CCCc3nnn[nH]3)CC2)c2ccccc2)cc1 [HQL-79, 4-benzhydryloxy-1-(3-(1H-tetrazol-5-yl)-propyl)-piperidine, reference compound]
effect on PGD2 production ([6]; TE-671 cells): but not from TE-671 cells | effect on PGD2 production [9]: inhibited PGD2 production
